Values joined by “and” are separate entries in the source; they are usually repeats but may differ in a detail not shown here. Equal values may be shown once. Read-outs that look alike come from different tables or passages of the source.
Legend:
[1] = system: prostate cancer PC-3 cells; test: De novo palmitate synthesis from 13C-glucose in whole cells (GC-MS); format: cell-based
Experimental: The ability of compounds to block biosynthesis of palmitate in whole cells (prostate cancer PC-3 cells) was measured by feeding cells isotopically labeled glucose (^13C-glucose) and measuring the incorporation of ^13C into palmitate by GC-MS.
Prostate cancer PC-3 cell were incubated with 20 μM of FASN inhibitors and labeled with [U-13C]-glucose for 24 h, pH 7.8. The incorporation of ^13C into palmitate from labeled glucose was determined by extracting fatty acids and resolving them by GC-MS. The mass distributions for fatty acid methyl esters for C16:0 (palmitate) were corrected for isotope natural abundance, and the corrected isotope patterns were used to calculate the labeling of acetyl-CoA in palmitate based on a binomial probability distribution of the incorporation of labeled acetyl units into the fatty acid chain.

[2] = target: T1, FASN (Homo sapiens, UniProt P49327); test: Competition with activity-based probe FP-PEG-TAMRA in PC-3 whole cell lysate: FASN; format: binding; details: PC-3 lysate, 20 μM final, pH 7.8
T1 construct: lysates of the prostate tumor line (PC3), which expresses FASN; endogenous in cells; host or cells: PC-3 prostate tumour cells (whole cell lysate)
Experimental: (§1) Studies were conducted to determine the selectivity of compound 16 for FASN over other human thioesterases. The ability of the compounds to bind the FASN holoenzyme was tested by assessing their ability to compete for the binding of an activity-based probe that covalently attaches to the active site of the FASN thioesterase. Thioesterases are members of the serine hydrolase family, which also includes a number of other types of enzymes including proteases, dipeptidyl peptidases, epoxide hydrolases, etc. To help assess the selectivity of compound 16, an activity-based probe polyethyleneglycol-6-carboxytetramethyl-rhodamine (FP-PEG-TAMRA) that binds covalently to the catalytic serine of all serine hydrolases was used. These studies were done by assessing the ability of compound 16 to compete for the binding of the activity-based probe in whole cell lysates. Several analogs of compound 16 were tested in this assay using lysates of the prostate tumor line (PC3), which expresses FASN, along with numerous other serine hydrolases. The PC-3 lysate was incubated with 8 different FASN inhibitors, including compounds 1, 16 and 97. Then the activity-based probe (FP-PEG-TAMRA) was added to each sample to label the serine hydrolases in the lysate.

[3] = system: other serine hydrolases in the lysate; test: Competition with activity-based probe FP-PEG-TAMRA in PC-3 whole cell lysate: other serine hydrolases; format: binding, human; details: PC-3 lysate, 20 μM final, pH 7.8
Experimental: as §1

[4] = target: T2, FASN thioesterase (Homo sapiens, UniProt P49327); test: FP-PEG-TAMRA labeling of recombinant FASN thioesterase; format: binding; details: recombinant enzyme, 20 μM final, pH 7.8
T2 construct: label the active site of the FASN thioesterase and ACOT4
Experimental: (§2) Additionally, studies were performed to test the selectivity of Compounds 1, 16, 22, and 37 for the FASN thioesterase over its most closely related human homolog, the enzyme called ACOT4 (see FIG. 3). Both proteins were mixed and pretreated with the compound (20 μM final, pH 7.8) before addition of the fluorescent activity probe FP-PEG-TAMRA. Respective fluorescence of the bands was detected on a Hitachi flatbed scanner and a greyscale version used for quantitative analysis using ImageJ. Recombinant forms of each enzyme were incubated with compound 16, compound 1, compound 37, and compound 22. FP-TAMRA was included in this mixture to label the active site of the FASN thioesterase and ACOT4. […] These findings further attest to the high degree of selectivity of compounds 1, 16, 37 and 22 for the FASN thioesterase.

[5] = target: T3, ACOT4 (Homo sapiens, UniProt Q8N9L9); test: FP-PEG-TAMRA labeling of recombinant ACOT4; format: binding; details: recombinant enzyme, 20 μM final, pH 7.8
T3 sequence (Q8N9L9 1-421): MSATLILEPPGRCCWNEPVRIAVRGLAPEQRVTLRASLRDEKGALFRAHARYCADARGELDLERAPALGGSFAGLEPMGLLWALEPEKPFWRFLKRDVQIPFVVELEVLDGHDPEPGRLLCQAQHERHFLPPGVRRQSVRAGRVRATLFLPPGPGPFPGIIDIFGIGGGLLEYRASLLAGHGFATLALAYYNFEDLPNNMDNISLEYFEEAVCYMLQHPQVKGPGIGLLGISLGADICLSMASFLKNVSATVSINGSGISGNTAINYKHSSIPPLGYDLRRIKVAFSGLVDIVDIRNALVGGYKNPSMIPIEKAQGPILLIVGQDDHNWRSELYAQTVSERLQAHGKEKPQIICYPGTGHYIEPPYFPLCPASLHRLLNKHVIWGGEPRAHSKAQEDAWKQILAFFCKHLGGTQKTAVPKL
Experimental: as §2

[6] = Aqueous solubility in pION's buffer; format: physicochemical
[7] = Aqueous solubility in 1x PBS, pH 7.4; format: physicochemical; details: pH 7.4, aqueous buffer
[8] = Chemical stability in 1x PBS; format: physicochemical
[9] = PAMPA permeability; format: in vitro ADME; details: for Papp: PAMPA, read-out: PAMPA Permeability, Pe
Experimental: The PAMPA (Parallel Artificial Membrane Permeability Assay) assay was used as an in vitro model of passive, transcellular permeability. An artificial membrane immobilized on a filter was placed between a donor and acceptor compartment. At the start of the test, drug was introduced in the donor compartment. Following the permeation period, the concentration of drug in the donor and acceptor compartments was measured using UV spectroscopy.

[10] = Plasma protein binding, human; format: in vitro ADME
Excerpt: (§3) Plasma protein binding was a measure of a drug's efficiency to bind to the proteins within blood plasma. The less bound a drug is, the more efficiently it can traverse cell membranes or diffuse. […] In contrast, drugs that remain largely unbound in plasma are generally available for distribution to other organs and tissues.

[11] = Plasma protein binding, mouse; format: in vitro ADME; details: read-out: Plasma Protein Binding (% Bound) (converted)
Excerpt: as §3

[12] = Hepatic microsome stability, human; format: in vitro ADME
Excerpt: The microsomal stability assay is commonly used to rank compounds according to their metabolic stability. This assay addresses the pharmacologic question of how long the parent compound will remain circulating in plasma within the body.

T2 sequence (P49327 2207-2511 limits assumed): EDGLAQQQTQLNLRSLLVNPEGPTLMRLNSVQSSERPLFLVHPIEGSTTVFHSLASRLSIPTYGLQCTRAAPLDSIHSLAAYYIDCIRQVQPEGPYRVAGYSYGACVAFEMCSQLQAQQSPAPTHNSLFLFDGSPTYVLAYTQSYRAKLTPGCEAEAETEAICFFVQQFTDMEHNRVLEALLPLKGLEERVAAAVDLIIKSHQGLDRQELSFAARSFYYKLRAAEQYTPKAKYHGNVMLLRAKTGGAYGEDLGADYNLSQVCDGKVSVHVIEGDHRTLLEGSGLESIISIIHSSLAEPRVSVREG
T1 sequence (P49327 whole entry): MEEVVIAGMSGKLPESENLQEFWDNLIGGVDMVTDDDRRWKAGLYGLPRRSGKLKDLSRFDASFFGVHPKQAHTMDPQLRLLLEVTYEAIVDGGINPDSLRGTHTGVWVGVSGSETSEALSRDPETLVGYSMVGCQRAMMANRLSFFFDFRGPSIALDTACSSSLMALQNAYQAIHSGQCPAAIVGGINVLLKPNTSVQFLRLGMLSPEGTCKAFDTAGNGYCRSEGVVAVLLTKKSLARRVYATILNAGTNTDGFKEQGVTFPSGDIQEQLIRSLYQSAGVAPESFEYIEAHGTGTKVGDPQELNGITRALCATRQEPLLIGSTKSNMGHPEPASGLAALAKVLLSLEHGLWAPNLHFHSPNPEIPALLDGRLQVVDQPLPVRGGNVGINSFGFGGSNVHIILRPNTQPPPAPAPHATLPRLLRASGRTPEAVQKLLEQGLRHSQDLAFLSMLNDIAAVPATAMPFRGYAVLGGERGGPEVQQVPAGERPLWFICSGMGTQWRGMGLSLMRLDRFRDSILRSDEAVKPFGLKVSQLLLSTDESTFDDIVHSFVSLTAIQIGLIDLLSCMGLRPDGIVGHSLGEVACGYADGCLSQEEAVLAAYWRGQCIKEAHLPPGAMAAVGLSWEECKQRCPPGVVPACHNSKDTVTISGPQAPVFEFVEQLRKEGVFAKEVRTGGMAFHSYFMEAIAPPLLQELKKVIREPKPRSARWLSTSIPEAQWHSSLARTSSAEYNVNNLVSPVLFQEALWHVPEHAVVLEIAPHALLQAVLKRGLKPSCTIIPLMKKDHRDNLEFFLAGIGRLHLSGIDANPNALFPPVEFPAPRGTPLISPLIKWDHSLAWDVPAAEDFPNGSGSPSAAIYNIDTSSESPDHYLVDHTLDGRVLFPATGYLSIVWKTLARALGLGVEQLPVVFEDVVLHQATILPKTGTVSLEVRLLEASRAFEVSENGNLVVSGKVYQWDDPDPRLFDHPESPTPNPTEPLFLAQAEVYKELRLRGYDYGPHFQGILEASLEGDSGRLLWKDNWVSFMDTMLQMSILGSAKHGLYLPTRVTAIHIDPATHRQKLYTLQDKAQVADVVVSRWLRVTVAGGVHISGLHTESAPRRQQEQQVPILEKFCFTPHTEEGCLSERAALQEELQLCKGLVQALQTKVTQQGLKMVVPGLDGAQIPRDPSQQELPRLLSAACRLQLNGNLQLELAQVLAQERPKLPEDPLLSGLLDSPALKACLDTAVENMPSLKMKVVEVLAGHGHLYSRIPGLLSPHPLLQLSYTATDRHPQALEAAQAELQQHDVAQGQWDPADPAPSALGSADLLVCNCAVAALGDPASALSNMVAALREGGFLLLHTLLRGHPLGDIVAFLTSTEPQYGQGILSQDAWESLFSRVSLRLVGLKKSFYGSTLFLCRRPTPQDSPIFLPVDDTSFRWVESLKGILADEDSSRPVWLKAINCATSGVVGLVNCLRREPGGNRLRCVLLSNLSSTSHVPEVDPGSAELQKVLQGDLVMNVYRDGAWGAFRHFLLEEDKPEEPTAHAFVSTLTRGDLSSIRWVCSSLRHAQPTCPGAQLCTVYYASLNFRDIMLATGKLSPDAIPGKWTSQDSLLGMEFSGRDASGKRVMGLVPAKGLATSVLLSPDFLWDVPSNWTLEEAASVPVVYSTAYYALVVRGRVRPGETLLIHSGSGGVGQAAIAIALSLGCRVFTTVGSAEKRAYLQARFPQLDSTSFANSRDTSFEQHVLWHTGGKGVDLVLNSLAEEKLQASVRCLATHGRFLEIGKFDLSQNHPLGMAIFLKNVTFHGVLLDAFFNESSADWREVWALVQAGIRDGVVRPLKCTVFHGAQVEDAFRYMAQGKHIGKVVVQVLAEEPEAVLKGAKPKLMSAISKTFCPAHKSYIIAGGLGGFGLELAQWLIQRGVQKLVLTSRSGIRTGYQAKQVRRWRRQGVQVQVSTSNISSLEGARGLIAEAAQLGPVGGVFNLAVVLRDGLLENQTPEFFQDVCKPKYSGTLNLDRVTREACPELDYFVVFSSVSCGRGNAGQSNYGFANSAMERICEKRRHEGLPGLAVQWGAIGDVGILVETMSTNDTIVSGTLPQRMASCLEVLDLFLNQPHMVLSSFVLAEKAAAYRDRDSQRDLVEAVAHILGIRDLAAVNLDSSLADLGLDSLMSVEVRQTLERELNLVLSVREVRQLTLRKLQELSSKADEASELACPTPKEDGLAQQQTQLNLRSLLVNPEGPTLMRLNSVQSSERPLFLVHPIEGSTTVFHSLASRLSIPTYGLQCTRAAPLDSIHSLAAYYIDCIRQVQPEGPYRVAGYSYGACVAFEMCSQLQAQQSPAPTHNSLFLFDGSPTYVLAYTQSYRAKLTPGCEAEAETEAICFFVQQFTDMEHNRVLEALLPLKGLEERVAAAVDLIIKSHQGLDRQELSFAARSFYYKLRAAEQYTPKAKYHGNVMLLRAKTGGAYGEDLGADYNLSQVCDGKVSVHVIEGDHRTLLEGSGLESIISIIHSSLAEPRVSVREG

CCC(CC)C(=O)Nc1nc(-c2ccc(S(=O)(=O)N3CCOCC3)cc2)cs1 [Compound 16, 2-Ethyl-N-(4-(4-(morpholinosulfonyl)phenyl)thiazol-2-yl)butanamide]
inhibition of palmitate synthesis in whole cells [1]: inhibitory activity | de novo palmitate synthesis/DMSO (%) ([1]; 20 μM, [U-13C]-glucose 24 h, pH 7.8, relative to DMSO control): 50% | inhibition of FASN (blocking of FP-TAMRA binding) [2]: showed inhibition of FASN | competition for activity based labeling of other serine hydrolases [3]: no competition | binding of FP-TAMRA to the active site of the FASN thioesterase [4]: blocked the binding of FP-TAMRA | activity labeling of ACOT4 [5]: without effect | solubility ([6]; aqueous buffer, pH 5.0): 0.19 µg/mL and 0.45 µM | solubility ([6]; pH 6.2, aqueous buffer): 0.06 µg/mL and 0.14 µM | solubility ([6]; pH 7.4, aqueous buffer): 0.13 µg/mL and 0.31 µM | solubility [7]: 0.02 µg/mL and 0.05 µM | Chemical Stability in 1x PBS pH 7.4 (% remaining after 48 hrs) ([8]; 1x PBS pH 7.4, 48 hrs): 100/100% | Chemical Stability in 1x PBS pH 7.4 with 50% ACN (% remaining after 48 hrs) ([8]; with 50% ACN, 48 hrs): 100/100% | Papp ([9]; Donor pH 5.0, Acceptor pH 7.4): 914 ×10⁻⁶ cm/s | Papp ([9]; Donor pH 6.2, Acceptor pH 7.4): 961 ×10⁻⁶ cm/s | Papp ([9]; pH 7.4, Donor pH 7.4, Acceptor pH 7.4): 653 ×10⁻⁶ cm/s | PAMPA permeability ([9]; across a range of pH of the donor compartment): very good permeability | fraction unbound at 1 μM ([10]; plasma, Human, 1 μM, read-out: Plasma Protein Binding (% Bound) (converted)): 0.034 | fraction unbound at 10 μM ([10]; plasma, Human, 10 μM, read-out: Plasma Protein Binding (% Bound) (converted)): 0.0253 | plasma protein binding ([10]; species not given): highly plasma protein bound | fraction unbound at 1 μM ([11]; 1 μM): 0.0381 | fraction unbound at 10 μM ([11]; 10 μM): 0.0337 | Hepatic Microsome Stability (% Remaining at 1 hr) ([12]; Human, 1 hr): 4.93% | liver microsome stability ([12]; human liver microsomes): poor stability
